From US11518760B2 (Liverpool School of Tropical Medicine, priority 2017, dated 2022)

tested on: C6/36 Aedes albopictus cell line infected with Wolbachia pipientis (Wolbachia strain wAlbB); test: In vitro insect cell line assay (anti-Wolbachia screen, SYTO 11 high content imaging); type: cell-based; settings: 168 h; C6/36 Aedes albopictus cells infected with Wolbachia pipientis wAlbB, 7 days incubation, SYTO 11 imaging; read-out: In vitro anti-Wolbachia activity
In short: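 Wolbachia wAlbB-infected C6/36 Aedes albopictus cells were exposed to compounds at a final 5 μM for 7 days at 26 °C, with DMSO-medium wells as untreated controls. Cells were then stained with SYTO 11 for 15 min, imaged by high-content microscopy and scored by texture analysis.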

Compound	EC50
FC(F)(F)OCC1CCCN1c1nc(NCc2cccnc2C(F)(F)F)c2cccnc2n1 (centres unmarked) [Example 299, 2-(2-((trifluoromethoxy)methyl)pyrrolidin-1-yl)-N-((2-(trifluoromethyl)pyridin-3-yl)methyl)pyrido[2,3-d]pyrimidin-4-amine]	< 0.01 nM
CN(Cc1ccc(F)cc1C(F)(F)F)c1ncnc2ccccc12 [Example 75, N-(4-fluoro-2-(trifluoromethyl)benzyl)-N-methylquinazolin-4-amine]	100 to 1000 nM
FC(F)(F)c1ncccc1CNc1ncnc2ccsc12 [Example 103, N-((2-(trifluoromethyl)pyridin-3-yl)methyl)thieno[3,2-d]pyrimidin-4-amine]	10 to 100 nM
C[C@H]1OCCN(c2nc(NCc3cccnc3C(F)(F)F)c3cccnc3n2)[C@H]1C [Example 287, 2-((2R,3S)-2,3-dimethylmorpholino)-N-((2-(trifluoromethyl)pyridin-3-yl)methyl)pyrido[2,3-d]pyrimidin-4-amine]	0.01 to 1 nM
CC1COCCN1c1nc(NCc2cccnc2C(F)(F)F)c2nccnc2n1 (centres unmarked) [Example 309, 2-(3-methylmorpholino)-N-((2-(trifluoromethyl)pyridin-3-yl)methyl)pteridin-4-amine]	100 to 1000 nM
CC(C)Nc1nc(NCc2ccc(C(F)(F)F)nc2)c2cccnc2n1 [Example 130, N^2-isopropyl-N^4-((6-(trifluoromethyl)pyridin-3-yl)methyl)pyrido[2,3-d]pyrimidine-2,4-diamine]	1000 to 100000 nM
NC(=O)c1nc(NCc2ccccc2C(F)(F)F)c2cccnc2n1 [Example 146, 4-((2-(trifluoromethyl)benzyl)amino)pyrido[2,3-d]pyrimidine-2-carboxamide]	1000 to 100000 nM
CC(C)Nc1nc(NCc2c(F)cccc2Cl)c2sccc2n1 [Example 30, N^4-(2-chloro-6-fluorobenzyl)-N^2-isopropylthieno[3,2-d]pyrimidine-2,4-diamine]	100 to 1000 nM
CC(C)Nc1nc(NCc2ccc(S(C)(=O)=O)cc2)c2ccccc2n1 [Example 110, N^2-isopropyl-N^4-(4-(methylsulfonyl)benzyl)quinazoline-2,4-diamine]	1000 to 100000 nM
CC(=O)c1nc(NCc2ccccc2C(F)(F)F)c2sccc2n1 [Example 87]	100 to 1000 nM
CC(C)C1COCCN1c1nc(NCc2cccnc2C(F)(F)F)c2cccnc2n1 (centres unmarked) [Example 269, 2-(3-isopropylmorpholino)-N-((2-(trifluoromethyl)pyridin-3-yl)methyl)pyrido[2,3-d]pyrimidin-4-amine]	1 to 10 nM
FC(F)OC1CCCN(c2nc(NCc3cccnc3C(F)(F)F)c3cccnc3n2)C1 (centres unmarked) [Example 292, 2-(3-(difluoromethoxy)piperidin-1-yl)-N-((2-(trifluoromethyl)pyridin-3-yl)methyl)pyrido[2,3-d]pyrimidin-4-amine]	< 0.01 nM
CC(C)Nc1nc(NCc2ccc(C#N)cc2)c2ncccc2n1 [Example 121, N^4-(4-cyanobenzyl)-N^2-isopropylpyrido[3,2-d]pyrimidine-2,4-diamine]	1000 to 100000 nM
FC1(F)CCN(c2nc(N3CCC3c3cccnc3C(F)(F)F)c3cccnc3n2)C1 (centres unmarked) [Example 220, 2-(3,3-difluoropyrrolidin-1-yl)-4-(2-(2-(trifluoromethyl)pyridin-3-yl)azetidin-1-yl)pyrido[2,3-d]pyrimidine]	0.01 to 1 nM
[2H]c1cc2nc(C)nc(N(C)C(C)c3ccccc3C(F)(F)F)c2s1 (centres unmarked) [Example 71]	10 to 100 nM
CC(C)(C)Nc1nc(NCc2ccccc2C(F)(F)F)c2sccc2n1 [Example 41, N^2-(tert-butyl)-N^4-(2-(trifluoromethyl)benzyl)thieno[3,2-d]pyrimidine-2,4-diamine]	10 to 100 nM
FC(F)(F)c1ncccc1C1CCN1c1nc(N2CC(C(F)(F)F)C2)nc2ncccc12 (centres unmarked) [Example 221, 2-(3-(trifluoromethyl)azetidin-1-yl)-4-(2-(2-(trifluoromethyl)pyridin-3-yl)azetidin-1-yl)pyrido[2,3-d]pyrimidine]	1 to 10 nM
